Assay results reported in US7632666B2 (priority 2005, dated 2009).

Experiments:
[1] = biological target: haloalkane dehalogenase DhlA (Xanthobacter autotrophicus, UniProt P22643); assay type: biochemical, Xanthobacter autotrophicus GJ10
[2] = biological target: haloalkane dehalogenase DhaA (Rhodococcus rhodochrous, UniProt P0A3G2); assay type: biochemical, Rhodococcus rhodochrous NCIMB 13064
[3] = biological target: T1, haloalkane dehalogenase DbjA (Bradyrhizobium diazoefficiens, UniProt P59337); assay type: biochemical, Bradyrhizobium japonicum USDA110
[4] = biological target: haloalkane dehalogenase LinB (Sphingobium indicum, UniProt D4Z2G1); assay type: biochemical, Sphingomonas paucimobilis UT26
[5] = biological target: haloalkane dehalogenase LinB L177T (Sphingobium indicum, UniProt D4Z2G1, L177T); assay type: biochemical
[6] = biological target: haloalkane dehalogenase LinB L177A (Sphingobium indicum, UniProt D4Z2G1, L177A); assay type: biochemical
[7] = biological target: haloalkane dehalogenase LinB L177D (Sphingobium indicum, UniProt D4Z2G1, L177D); assay type: biochemical
[8] = biological target: haloalkane dehalogenase LinB L177F (Sphingobium indicum, UniProt D4Z2G1, L177F); assay type: biochemical
[9] = biological target: haloalkane dehalogenase LinB L177W (Sphingobium indicum, UniProt D4Z2G1, L177W); assay type: biochemical
[10] = biological target: haloalkane dehalogenase LinB L177Q (Sphingobium indicum, UniProt D4Z2G1, L177Q); assay type: biochemical
[11] = biological target: haloalkane dehalogenase LinB L177K (Sphingobium indicum, UniProt D4Z2G1, L177K); assay type: biochemical
[12] = biological target: haloalkane dehalogenase LinB wild type (Sphingobium indicum, UniProt D4Z2G1); assay type: biochemical, Sphingomonas paucimobilis UT26
[13] = biological target: haloalkane dehalogenase LinB L177C (Sphingobium indicum, UniProt D4Z2G1, L177C); assay type: biochemical
[14] = biological target: haloalkane dehalogenase LinB L177Y (Sphingobium indicum, UniProt D4Z2G1, L177Y); assay type: biochemical
[15] = biological target: haloalkane dehalogenase LinB L177R (Sphingobium indicum, UniProt D4Z2G1, L177R); assay type: biochemical
[16] = biological target: haloalkane dehalogenase LinB L177V (Sphingobium indicum, UniProt D4Z2G1, L177V); assay type: biochemical
[17] = biological target: haloalkane dehalogenase LinB L177H (Sphingobium indicum, UniProt D4Z2G1, L177H); assay type: biochemical
[18] = biological target: haloalkane dehalogenase LinB L177G (Sphingobium indicum, UniProt D4Z2G1, L177G); assay type: biochemical
[19] = biological target: haloalkane dehalogenase LinB L177S (Sphingobium indicum, UniProt D4Z2G1, L177S); assay type: biochemical
[20] = biological target: haloalkane dehalogenase LinB L177M (Sphingobium indicum, UniProt D4Z2G1, L177M); assay type: biochemical
[21] = biological target: T1, haloalkane dehalogenase DbjA; assay type: biochemical, Bradyrhizobium japonicum USDA110; conditions: for Relative enzyme activity (%) 5% of solvent / Relative enzyme activity (%) 10% of solvent / Relative enzyme activity (%) 20% of solvent: pH 8.6

Sequence of haloalkane dehalogenase LinB L177K (D4Z2G1 whole entry L177K, looked up): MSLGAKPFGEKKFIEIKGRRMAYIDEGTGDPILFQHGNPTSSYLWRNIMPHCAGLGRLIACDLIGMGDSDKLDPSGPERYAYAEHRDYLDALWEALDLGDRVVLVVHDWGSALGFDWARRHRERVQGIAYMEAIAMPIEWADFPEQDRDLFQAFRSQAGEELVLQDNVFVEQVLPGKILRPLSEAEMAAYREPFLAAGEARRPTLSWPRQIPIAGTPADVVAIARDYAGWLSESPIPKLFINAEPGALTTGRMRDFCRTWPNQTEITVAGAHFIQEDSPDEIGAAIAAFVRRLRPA
Sequence of haloalkane dehalogenase LinB L177D (D4Z2G1 whole entry L177D, looked up): as the sequence (D4Z2G1 whole entry L177K, looked up) above, with K177D counted along it
Sequence of haloalkane dehalogenase DhaA (P0A3G2 whole entry): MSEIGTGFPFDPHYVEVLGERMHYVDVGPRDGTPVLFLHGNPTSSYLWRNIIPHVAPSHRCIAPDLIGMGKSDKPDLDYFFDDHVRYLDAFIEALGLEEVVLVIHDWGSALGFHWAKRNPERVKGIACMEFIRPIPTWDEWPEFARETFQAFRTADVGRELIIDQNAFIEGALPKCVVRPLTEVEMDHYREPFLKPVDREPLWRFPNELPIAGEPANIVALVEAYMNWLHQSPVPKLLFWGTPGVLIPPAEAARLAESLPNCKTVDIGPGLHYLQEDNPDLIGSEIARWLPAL
Sequence of haloalkane dehalogenase LinB L177V (D4Z2G1 whole entry L177V, looked up): as the sequence (D4Z2G1 whole entry L177K, looked up) above, with K177V counted along it
Sequence of haloalkane dehalogenase LinB L177M (D4Z2G1 whole entry L177M, looked up): as the sequence (D4Z2G1 whole entry L177K, looked up) above, with K177M counted along it
Sequence of haloalkane dehalogenase LinB L177T (D4Z2G1 whole entry L177T, looked up): as the sequence (D4Z2G1 whole entry L177K, looked up) above, with K177T counted along it
Sequence of haloalkane dehalogenase LinB L177G (D4Z2G1 whole entry L177G, looked up): as the sequence (D4Z2G1 whole entry L177K, looked up) above, with K177G counted along it
Sequence of haloalkane dehalogenase DhlA (P22643 whole entry): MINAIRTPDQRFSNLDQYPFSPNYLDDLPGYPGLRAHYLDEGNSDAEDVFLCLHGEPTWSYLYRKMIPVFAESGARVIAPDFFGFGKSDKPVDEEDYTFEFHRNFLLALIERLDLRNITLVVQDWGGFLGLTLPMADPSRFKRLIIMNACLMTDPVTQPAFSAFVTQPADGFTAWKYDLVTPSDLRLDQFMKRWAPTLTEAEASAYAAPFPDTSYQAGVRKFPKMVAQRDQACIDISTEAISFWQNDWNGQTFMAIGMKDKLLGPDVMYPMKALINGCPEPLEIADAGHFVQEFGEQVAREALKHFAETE
Sequence of haloalkane dehalogenase LinB L177F (D4Z2G1 whole entry L177F, looked up): as the sequence (D4Z2G1 whole entry L177K, looked up) above, with K177F counted along it
Sequence of haloalkane dehalogenase LinB L177Y (D4Z2G1 whole entry L177Y, looked up): as the sequence (D4Z2G1 whole entry L177K, looked up) above, with K177Y counted along it
Sequence of haloalkane dehalogenase LinB L177S (D4Z2G1 whole entry L177S, looked up): as the sequence (D4Z2G1 whole entry L177K, looked up) above, with K177S counted along it
T1 sequence (P59337 whole entry): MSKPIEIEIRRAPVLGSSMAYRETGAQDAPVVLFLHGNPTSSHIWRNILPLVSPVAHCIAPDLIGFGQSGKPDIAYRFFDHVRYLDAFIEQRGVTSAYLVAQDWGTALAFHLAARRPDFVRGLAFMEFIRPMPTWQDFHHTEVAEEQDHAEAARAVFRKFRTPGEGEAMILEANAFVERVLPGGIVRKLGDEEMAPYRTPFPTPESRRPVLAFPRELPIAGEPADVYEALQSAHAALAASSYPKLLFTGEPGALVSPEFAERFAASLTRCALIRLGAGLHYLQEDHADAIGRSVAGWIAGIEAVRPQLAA
Sequence of haloalkane dehalogenase LinB L177H (D4Z2G1 whole entry L177H, looked up): as the sequence (D4Z2G1 whole entry L177K, looked up) above, with K177H counted along it
Sequence of haloalkane dehalogenase LinB L177Q (D4Z2G1 whole entry L177Q, looked up): as the sequence (D4Z2G1 whole entry L177K, looked up) above, with K177Q counted along it
Sequence of haloalkane dehalogenase LinB L177W (D4Z2G1 whole entry L177W, looked up): as the sequence (D4Z2G1 whole entry L177K, looked up) above, with K177W counted along it
Sequence of haloalkane dehalogenase LinB L177R (D4Z2G1 whole entry L177R, looked up): as the sequence (D4Z2G1 whole entry L177K, looked up) above, with K177R counted along it
Sequence of haloalkane dehalogenase LinB L177A (D4Z2G1 whole entry L177A, looked up): as the sequence (D4Z2G1 whole entry L177K, looked up) above, with K177A counted along it
Sequence of haloalkane dehalogenase LinB L177C (D4Z2G1 whole entry L177C, looked up): as the sequence (D4Z2G1 whole entry L177K, looked up) above, with K177C counted along it
Sequence of haloalkane dehalogenase LinB wild type (D4Z2G1 whole entry): as the sequence (D4Z2G1 whole entry L177K, looked up) above, with K177L counted along it
Sequence of haloalkane dehalogenase LinB (D4Z2G1 whole entry): as the sequence (D4Z2G1 whole entry L177K, looked up) above, with K177L counted along it

SMILES	E-values DhlA [1]	E-values DhaA [2]	E-values DbjA [3]	E-values LinB [4]	Relative enzyme activity (%) 5% of solvent [21] [%]	Relative enzyme activity (%) 10% of solvent [21] [%]	Relative enzyme activity (%) 20% of solvent [21] [%]	also measured
COC(=O)C(Br)CCBr (racemic) [methyl 2,4-dibromobutyrate]	1.6	1	1.3	1.9				
CCCCC(C)Br (racemic) [2-bromohexane]		4	35	12				
ICCCI [1,3-diidopropane]								Relative activities (% of wt) L177T [5]: 108 % of wt; Relative activities (% of wt) L177A [6]: 360 % of wt; Relative activities (% of wt) L177D [7]: 209 % of wt; Relative activities (% of wt) L177F [8]: 130 % of wt; Relative activities (% of wt) L177W [9]: 117 % of wt; Relative activities (% of wt) L177Q [10]: 159 % of wt; Relative activities (% of wt) L177K [11]: 132 % of wt; Relative activities (% of wt) wt1 [12]: 100 % of wt; Relative activities (% of wt) wt2 [12]: 100 % of wt; Relative activities (% of wt) L177C [13]: 192 % of wt; Relative activities (% of wt) L177Y [14]: 102 % of wt; Relative activities (% of wt) L177R [15]: 127 % of wt; Relative activities (% of wt) L177V [16]: 206 % of wt; Relative activities (% of wt) L177H [17]: 140 % of wt; Relative activities (% of wt) L177G [18]: 164 % of wt; Relative activities (% of wt) L177S [19]: 123 % of wt; Relative activities (% of wt) L177M [20]: 202 % of wt
CN(C)C=O [N,N-dimethylformamide]					110.5 ± 11.6	112.6 ± 3.8	101.9 ± 1.0	
CO [Methanol]					93.5 ± 0.9	128.7 ± 3.5	160.7 ± 2.0	DbjA activity in the presence of the solvent in the reaction medium [21]: increasing activity
CC(Cl)CCCl (racemic) [1,3-dichlorobutane]	2.8	1.6	1.0	2.6				
CC(CCl)CBr (racemic) [1-bromo-3-chloro-2-methylpropane]	1.8	1.7	1.4	1.8				
CCCCCl [1-chlorobutane]								Km [7]: 21.9 mM
CCCCI [1-iodobutane]								Relative activities (% of wt) L177T [5]: 424 % of wt; Relative activities (% of wt) L177A [6]: 133 % of wt; Relative activities (% of wt) L177D [7]: 259 % of wt; Relative activities (% of wt) L177F [8]: 126 % of wt; Relative activities (% of wt) L177W [9]: 58 % of wt; Relative activities (% of wt) L177Q [10]: 373 % of wt; Relative activities (% of wt) L177K [11]: 131 % of wt; Relative activities (% of wt) wt1 [12]: 100 % of wt; Relative activities (% of wt) wt2 [12]: 100 % of wt; Relative activities (% of wt) L177C [13]: 210 % of wt; Relative activities (% of wt) L177Y [14]: 97 % of wt; Relative activities (% of wt) L177R [15]: 161 % of wt; Relative activities (% of wt) L177V [16]: 101 % of wt; Relative activities (% of wt) L177H [17]: 208 % of wt; Relative activities (% of wt) L177G [18]: 344 % of wt; Relative activities (% of wt) L177S [19]: 363 % of wt; Relative activities (% of wt) L177M [20]: 187 % of wt
CC(C)=O [acetone]					113.8 ± 7.3	140.3 ± 2.1	168.2 ± 3.1	DbjA activity in the presence of the solvent in the reaction medium [21]: increasing activity; increase of reaction rate compared to that in the glycine buffer [21]: 1.68 times
CC(C)(C)C(Br)CBr (racemic) [1,2-dibromo-3,3-dimethylbutane]				1.1				
NC=O [Formamide]					73.4 ± 7.6	76.3 ± 5.0	16.3 ± 0.6	
C1COCCO1 [1,4-dioxane]					121.4 ± 3.9	139.9 ± 7.8	152.0 ± 9.5	DbjA activity in the presence of the solvent in the reaction medium [21]: increasing activity
BrCCBr [1,2-dibromoethane]								Relative activities (% of wt) L177T [5]: 107 % of wt; Relative activities (% of wt) L177A [6]: 155 % of wt; Km [7]: 14 mM; Relative activities (% of wt) L177D [7]: 77 % of wt; Relative activities (% of wt) L177F [8]: 70 % of wt; Relative activities (% of wt) L177W [9]: 7 % of wt; Relative activities (% of wt) L177Q [10]: 123 % of wt; Relative activities (% of wt) L177K [11]: 97 % of wt; Relative activities (% of wt) wt1 [12]: 100 % of wt; Relative activities (% of wt) wt2 [12]: 100 % of wt; Relative activities (% of wt) L177C [13]: 52 % of wt; Relative activities (% of wt) L177Y [14]: 16 % of wt; Relative activities (% of wt) L177R [15]: 68 % of wt; Relative activities (% of wt) L177V [16]: 84 % of wt; Relative activities (% of wt) L177H [17]: 55 % of wt; Relative activities (% of wt) L177G [18]: 78 % of wt; Relative activities (% of wt) L177S [19]: 84 % of wt; Relative activities (% of wt) L177M [20]: 126 % of wt
CC(Cl)CCl (stereo not drawn) [1,2-dichloropropane]	2							
CC#N [acetonitrile]					117.5 ± 8.9	124.1 ± 1.0	0.0 ± 0.0	
CC(Br)CBr (stereo not drawn) [1,2-dibromopropane]	3	1.3	2.6	1.3				
CCC(Br)CBr (racemic) [1,2-dibromobutane]	1.1	2	2.7	10				
CC(Br)CCBr (racemic) [1,3-dibromobutane]	2	1.3	1.4	4.6				
C1CCOC1 [tetrahydrofurane]					111.9 ± 13.4	96.9 ± 9.0	0.0 ± 0.0	
CCCCCC(C)Br (racemic) [2-bromoheptane]	2.4	2.9	28	2.8				
OCCO [ethyleneglycol]					87.1 ± 9.8	80.5 ± 8.9	109.8 ± 4.0	
